Numbers after ± are expanded uncertainties.
Settings: for vapor or sublimation pressure: Liquid, Closed cell (Static) method; for mass density: 263.41 K, Fluid (supercritical or subcritical phases), Vibrating tube method

FC(F)=C(F)C(F)(F)F [hexafluoropropene]
Settings | mass density [kg/m3] | vapor or sublimation pressure [kPa]
1.9 kPa | 0.11 ± 0.03 | –
2.4 kPa | 0.12 ± 0.03 | –
2.9 kPa | 0.15 ± 0.03 | –
3.5 kPa | 0.21 ± 0.03 | –
4.3 kPa | 0.25 ± 0.03 | –
5 kPa | 0.26 ± 0.03 | –
5.7 kPa | 0.35 ± 0.03 | –
6.3 kPa | 0.39 ± 0.03 | –
7.1 kPa | 0.47 ± 0.03 | –
7.8 kPa | 0.48 ± 0.03 | –
8.5 kPa | 0.55 ± 0.03 | –
9.3 kPa | 0.61 ± 0.03 | –
10 kPa | 0.66 ± 0.03 | –
10.7 kPa | 0.71 ± 0.03 | –
11.4 kPa | 0.79 ± 0.03 | –
12.1 kPa | 0.8 ± 0.03 | –
12.9 kPa | 0.87 ± 0.03 | –
13.6 kPa | 0.9 ± 0.03 | –
14.4 kPa | 0.96 ± 0.03 | –
15 kPa | 1 ± 0.03 | –
15.8 kPa | 1.02 ± 0.03 | –
16.5 kPa | 1.08 ± 0.03 | –
17.1 kPa | 1.17 ± 0.03 | –
17.9 kPa | 1.18 ± 0.03 | –
18.6 kPa | 1.25 ± 0.03 | –
20 kPa | 1.33 ± 0.03 | –
21.5 kPa | 1.4 ± 0.03 | –
22.9 kPa | 1.53 ± 0.03 | –
24.3 kPa | 1.63 ± 0.03 | –
25.8 kPa | 1.75 ± 0.03 | –
27.2 kPa | 1.83 ± 0.03 | –
28.6 kPa | 1.89 ± 0.03 | –
30 kPa | 2.05 ± 0.03 | –
31.4 kPa | 2.13 ± 0.03 | –
32.8 kPa | 2.25 ± 0.03 | –
34.2 kPa | 2.33 ± 0.03 | –
35.5 kPa | 2.43 ± 0.03 | –
36.3 kPa | 2.5 ± 0.03 | –
37.7 kPa | 2.61 ± 0.03 | –
39 kPa | 2.7 ± 0.03 | –
40.5 kPa | 2.77 ± 0.03 | –
41.9 kPa | 2.87 ± 0.03 | –
43.2 kPa | 2.95 ± 0.03 | –
44.5 kPa | 3.08 ± 0.03 | –
45.3 kPa | 3.09 ± 0.03 | –
46.6 kPa | 3.21 ± 0.03 | –
48 kPa | 3.31 ± 0.03 | –
49.4 kPa | 3.4 ± 0.03 | –
50.7 kPa | 3.48 ± 0.03 | –
52.1 kPa | 3.59 ± 0.03 | –
53.4 kPa | 3.66 ± 0.03 | –
54.7 kPa | 3.8 ± 0.03 | –
56.1 kPa | 3.85 ± 0.03 | –
57.5 kPa | 3.97 ± 0.03 | –
58.8 kPa | 4.06 ± 0.03 | –
60.1 kPa | 4.18 ± 0.03 | –
61.4 kPa | 4.28 ± 0.03 | –
62.8 kPa | 4.33 ± 0.03 | –
64 kPa | 4.44 ± 0.03 | –
65.4 kPa | 4.56 ± 0.03 | –
66.7 kPa | 4.62 ± 0.03 | –
68 kPa | 4.73 ± 0.03 | –
69.3 kPa | 4.82 ± 0.03 | –
70.5 kPa | 4.89 ± 0.03 | –
71.3 kPa | 4.97 ± 0.03 | –
72.5 kPa | 5.04 ± 0.03 | –
73.9 kPa | 5.17 ± 0.03 | –
75.2 kPa | 5.2 ± 0.03 | –
76.4 kPa | 5.28 ± 0.03 | –
77.7 kPa | 5.44 ± 0.03 | –
79 kPa | 5.49 ± 0.03 | –
80.3 kPa | 5.61 ± 0.03 | –
81.6 kPa | 5.72 ± 0.03 | –
82.7 kPa | 5.81 ± 0.03 | –
83.5 kPa | 5.85 ± 0.03 | –
84.7 kPa | 5.95 ± 0.03 | –
86 kPa | 6 ± 0.03 | –
87.2 kPa | 6.11 ± 0.03 | –
88.4 kPa | 6.26 ± 0.03 | –
89.8 kPa | 6.31 ± 0.03 | –
91 kPa | 6.41 ± 0.03 | –
92.3 kPa | 6.52 ± 0.03 | –
93.5 kPa | 6.56 ± 0.03 | –
94.6 kPa | 6.62 ± 0.03 | –
96 kPa | 6.75 ± 0.03 | –
97.3 kPa | 6.84 ± 0.03 | –
98.5 kPa | 6.94 ± 0.03 | –
99.7 kPa | 7.02 ± 0.03 | –
100.4 kPa | 7.07 ± 0.03 | –
101.6 kPa | 7.14 ± 0.03 | –
102.8 kPa | 7.21 ± 0.03 | –
104.5 kPa | 7.41 ± 0.03 | –
105.8 kPa | 7.51 ± 0.03 | –
107 kPa | 7.55 ± 0.03 | –
108.2 kPa | 7.68 ± 0.03 | –
109.5 kPa | 7.75 ± 0.03 | –
110.7 kPa | 7.85 ± 0.03 | –
112.4 kPa | 7.99 ± 0.03 | –
114.2 kPa | 8.06 ± 0.03 | –
115.5 kPa | 8.22 ± 0.03 | –
116.7 kPa | 8.3 ± 0.04 | –
117.9 kPa | 8.33 ± 0.04 | –
119.6 kPa | 8.49 ± 0.04 | –
120.8 kPa | 8.59 ± 0.04 | –
122 kPa | 8.7 ± 0.04 | –
123.2 kPa | 8.78 ± 0.04 | –
124.4 kPa | 8.88 ± 0.04 | –
126 kPa | 8.99 ± 0.04 | –
127.2 kPa | 9.05 ± 0.04 | –
128.4 kPa | 9.16 ± 0.04 | –
130.2 kPa | 9.28 ± 0.04 | –
131.8 kPa | 9.44 ± 0.04 | –
133 kPa | 9.5 ± 0.04 | –
134.7 kPa | 9.61 ± 0.04 | –
136.4 kPa | 9.79 ± 0.04 | –
138.1 kPa | 9.87 ± 0.04 | –
139.8 kPa | 10.02 ± 0.04 | –
141.5 kPa | 10.14 ± 0.04 | –
143.2 kPa | 10.31 ± 0.04 | –
144.8 kPa | 10.44 ± 0.04 | –
146.5 kPa | 10.54 ± 0.04 | –
148.1 kPa | 10.66 ± 0.04 | –
149.8 kPa | 10.8 ± 0.04 | –
151.4 kPa | 10.89 ± 0.04 | –
153 kPa | 11.03 ± 0.04 | –
154.7 kPa | 11.17 ± 0.04 | –
156.3 kPa | 11.29 ± 0.04 | –
157.9 kPa | 11.41 ± 0.04 | –
159.6 kPa | 11.53 ± 0.04 | –
161.2 kPa | 11.7 ± 0.04 | –
253.26 K | – | 149.7 ± 1.1
258.26 K | – | 184.1 ± 1.1
263.16 K | – | 224.5 ± 1.1

Source: the NIST ThermoML archive (doi:10.1021/je900596d)
